Literature values as cited in PMC10459069, “Comparative Serum and Brain Pharmacokinetics of Quercetin after Oral and Nasal Administration to Rats as Lyophilized Complexes with β-Cyclodextrin Derivatives and Their Blends with Mannitol/Lecithin Microparticles” (Pharmaceutics, 2023).

What was measured:
[1] = design: method as in PMID 19720149; conditions: mice, 6-week treatment with Que-enriched diets (2 mg/g diet)
[2] = rats
[3] = reference not given

brain levels [1] [µg/g] | Cmax/dose ratio ([2]; intragastric administration of 100 mg/kg of pure Que, ref Yang et al. (2016) 46) | levels in the brain ([2]; single oral administration of Que) | logP [3] | Compound
0.085 | 0.03 | did not reveal measurable levels |  | O=c1c(O)c(-c2ccc(O)c(O)c2)oc2cc(O)cc(O)c12 [Que, Quercetin]
 |  |  | −3.4 | OC[C@@H](O)[C@@H](O)[C@H](O)[C@H](O)CO [mannitol, Mannitol]
